Assay results published in EP4707280A1, “1,4-CINEOLE DERIVATIVE AND INTERMEDIATE THEREOF, HERBICIDE CONTAINING SAID DERIVATIVE AS ACTIVE INGREDIENT, METHOD FOR USING HERBICIDE, AND METHOD FOR PREPARING AGROCHEMICAL COMPOSITION” (HOKKO CHEMICAL INDUSTRY CO., LTD., priority 2023, dated 2024).

Assays:
Type in all cases: in vivo
[1] = test system: Echinochloa crus-galli var. formosensis; assay: Test Example 1: herbicidal effect test by soil application in paddy rice; settings: Echinochloa crus-galli, soil, 336 h; 120 g active ingredient per 10 ares; applied immediately after sowing, flooded pots; 14 days after application; read-out: weed inhibition rate
Procedure, shortened: (§1)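 Pre-emergence paddy soil application, 120 g a.i./10 a, emulsifiable concentrate diluted in water, applied by dropper right after sowing. Seeds (30/species) sown 0–1 cm in puddled, fertilized soil; flooded ~3 cm; glass greenhouse.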

Scirpus juncoides [2] = assay: as above; settings: Schoenoplectiella juncoides, soil, 336 h; 120 g active ingredient per 10 ares; applied immediately after sowing, flooded pots; 14 days after application; read-out: weed inhibition rate
Procedure, shortened: as §1

[3] = test system: Echinochloa crus-galli var. formosensis; assay: Test Example 2: herbicidal effect test by application during growth period of paddy rice; settings: Echinochloa crus-galli; 120 g per 10 ares; applied seven days after sowing, flooded pots; 14 days after application; read-out: weed inhibition rate
Procedure, shortened: (§2)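 Paddy soil in flooded pots (water depth about 3 cm) was sown with weed seeds and kept in a glass greenhouse. Seven days after sowing, a diluted emulsifiable concentrate was applied by dropper at 120 g active ingredient per 10 ares. Weed inhibition was evaluated 14 days after application, in duplicate.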

Scirpus juncoides [4] = assay: as above; settings: Schoenoplectiella juncoides; 120 g per 10 ares; applied seven days after sowing, flooded pots; 14 days after application; read-out: weed inhibition rate
Procedure, shortened: as §2

Digitaria ciliaris [5] = assay: Test Example 3: herbicidal effect test by soil application in upland field; settings: Digitaria ciliaris, 120 g per 10 ares, sprayed one day after sowing, 14 days after application, read-out: weed inhibition rate
Procedure, shortened: (§3)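 Weed inhibition (%) was assessed 14 days after treatment, in duplicate per concentration group. Seeds had been mixed into the upper 1 cm of upland alluvial loam, and the soil surface was sprayed one day later with the diluted emulsifiable concentrate at 120 g active ingredient per 10 ares.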

Echinochloa crus-galli [6] = assay: as above; settings: Echinochloa crus-galli, 120 g per 10 ares, sprayed one day after sowing, 14 days after application, read-out: weed inhibition rate
Procedure, shortened: as §3

Digitaria ciliaris [7] = assay: Test Example 4: herbicidal effect test by stem and leaf treatment in upland field; settings: Digitaria ciliaris; 120 g per 10 ares; sprayed seven days after sowing, upland soil; 14 days after application; read-out: weed inhibition rate
Echinochloa crus-galli [8] = assay: as above; settings: Echinochloa crus-galli; 120 g per 10 ares; sprayed seven days after sowing, upland soil; 14 days after application; read-out: weed inhibition rate
[9] = test system: Echinochloa crus-galli var. formosensis; assay: Test Example 5: herbicidal effect test by soil application in paddy rice (low dose); settings: Echinochloa crus-galli, soil, 336 h; 7.5 g per 10 ares; applied immediately after sowing, flooded pots; 14 days after application; read-out: weed inhibition rate
Procedure, shortened: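 Paddy-soil pots, weeds sown 0–1 cm deep and flooded to about 3 cm in a greenhouse. Emulsifiable concentrate diluted in water and dropped in right after sowing at 7.5 g active ingredient per 10 ares. Duplicates; effect scored 14 days after application.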

[10] = test system: Echinochloa crus-galli var. formosensis; assay: Test Example 6: herbicidal effect test by application during growth period of paddy rice (low dose); settings: Echinochloa crus-galli; 7.5 g per 10 ares; applied seven days after sowing, flooded pots; 14 days after application; read-out: weed inhibition rate
Procedure, shortened: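 Puddled, fertilised paddy soil was sown with 30 seeds per species and flooded to about 3 cm. After 7 days in a glass greenhouse, the diluted emulsifiable concentrate went into the water by dropper at 7.5 g/10 a. Effect scored at 14 days.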

Digitaria ciliaris [11] = assay: Test Example 7: herbicidal effect test by soil application in upland field (low dose); settings: Digitaria ciliaris, 7.5 g per 10 ares, sprayed one day after sowing, 14 days after application, read-out: weed inhibition rate
Procedure, shortened: (§4)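 Upland alluvial loam pots, seeds mixed into top 1 cm of soil; one day after sowing, diluted emulsifiable concentrate sprayed on soil at 100 L/10 a, giving 7.5 g active ingredient/10 a. Duplicate pots; weed inhibition rate (%) scored 14 days after application.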

Echinochloa crus-galli [12] = assay: as above; settings: Echinochloa crus-galli, 7.5 g per 10 ares, sprayed one day after sowing, 14 days after application, read-out: weed inhibition rate
Procedure, shortened: as §4

Digitaria ciliaris [13] = assay: Test Example 8: herbicidal effect test by stem and leaf treatment in upland field (low dose); settings: Digitaria ciliaris; 7.5 g per 10 ares; sprayed seven days after sowing, upland soil; 14 days after application; read-out: weed inhibition rate
Echinochloa crus-galli [14] = assay: as above; settings: Echinochloa crus-galli; 7.5 g per 10 ares; sprayed seven days after sowing, upland soil; 14 days after application; read-out: weed inhibition rate

CC(C)C12CC(OCc3c(Cl)cccc3Cl)C(C)(CC1I)O2 (stereo not shown) [1-1447, 5-[(2,6-dichlorophenyl)methoxy]-2-iodo-1-isopropyl-4-methyl-7-oxabicyclo[2.2.1]heptane]
≥ 80%: pest or weed control at 1200 g/ha [1] | pest or weed control at 1200 g/ha (Scirpus juncoides [2]) | inhibition at 1200 g/ha [3] | inhibition at 1200 g/ha (Scirpus juncoides [4]) | inhibition at 1200 g/ha (Digitaria ciliaris [5]) | inhibition at 1200 g/ha (Echinochloa crus-galli [6]) | inhibition at 1200 g/ha (Digitaria ciliaris [7]) | inhibition at 1200 g/ha (Echinochloa crus-galli [8]) | inhibition at 75 g/ha [9] | inhibition at 75 g/ha [10] | inhibition at 75 g/ha (Digitaria ciliaris [11]) | inhibition at 75 g/ha (Echinochloa crus-galli [12]) | inhibition at 75 g/ha (Digitaria ciliaris [13]) | inhibition at 75 g/ha (Echinochloa crus-galli [14])

CC(C)=CCOC1CC2(C(C)C)OC1(C)CC2I (stereo not shown) [1-1400, 5-iodo-1-methyl-2-(3-methylbut-2-enoxy)-4-isopropyl-7-oxabicyclo[2.2.1]heptane]
≥ 80%: pest or weed control at 1200 g/ha [1] | pest or weed control at 1200 g/ha (Scirpus juncoides [2]) | inhibition at 1200 g/ha [3] | inhibition at 1200 g/ha (Scirpus juncoides [4]) | inhibition at 1200 g/ha (Digitaria ciliaris [5]) | inhibition at 1200 g/ha (Echinochloa crus-galli [6]) | inhibition at 1200 g/ha (Digitaria ciliaris [7]) | inhibition at 1200 g/ha (Echinochloa crus-galli [8]) | inhibition at 75 g/ha [9] | inhibition at 75 g/ha [10] | inhibition at 75 g/ha (Digitaria ciliaris [11]) | inhibition at 75 g/ha (Echinochloa crus-galli [12]) | inhibition at 75 g/ha (Digitaria ciliaris [13]) | inhibition at 75 g/ha (Echinochloa crus-galli [14])

Cc1cccc(C)c1COC1CC2(C(C)C)OC1(C)CC2I (stereo not shown) [1-1445, 5-[(2,6-dimethylphenyl)methoxy]-2-iodo-1-isopropyl-4-methyl-7-oxabicyclo[2.2.1]heptane]
≥ 80%: pest or weed control at 1200 g/ha [1] | pest or weed control at 1200 g/ha (Scirpus juncoides [2]) | inhibition at 1200 g/ha [3] | inhibition at 1200 g/ha (Scirpus juncoides [4]) | inhibition at 1200 g/ha (Digitaria ciliaris [5]) | inhibition at 1200 g/ha (Echinochloa crus-galli [6]) | inhibition at 1200 g/ha (Digitaria ciliaris [7]) | inhibition at 1200 g/ha (Echinochloa crus-galli [8]) | inhibition at 75 g/ha [9] | inhibition at 75 g/ha [10] | inhibition at 75 g/ha (Digitaria ciliaris [11]) | inhibition at 75 g/ha (Echinochloa crus-galli [12]) | inhibition at 75 g/ha (Digitaria ciliaris [13]) | inhibition at 75 g/ha (Echinochloa crus-galli [14])

CC(C)C12CC(OCc3c(F)cccc3Br)C(C)(CC1I)O2 (stereo not shown) [1-1612, 5-[(2-bromo-6-fluoro-phenyl)methoxy]-2-iodo-1-isopropyl-4-methyl-7-oxabicyclo[2.2.1]heptane]
≥ 80%: pest or weed control at 1200 g/ha [1] | pest or weed control at 1200 g/ha (Scirpus juncoides [2]) | inhibition at 1200 g/ha [3] | inhibition at 1200 g/ha (Scirpus juncoides [4]) | inhibition at 1200 g/ha (Digitaria ciliaris [5]) | inhibition at 1200 g/ha (Echinochloa crus-galli [6]) | inhibition at 1200 g/ha (Digitaria ciliaris [7]) | inhibition at 1200 g/ha (Echinochloa crus-galli [8]) | inhibition at 75 g/ha [9] | inhibition at 75 g/ha [10] | inhibition at 75 g/ha (Digitaria ciliaris [11]) | inhibition at 75 g/ha (Echinochloa crus-galli [12]) | inhibition at 75 g/ha (Digitaria ciliaris [13]) | inhibition at 75 g/ha (Echinochloa crus-galli [14])

CC(C)C12CC(OCc3c(F)cccc3Cl)C(C)(CC1Cl)O2 (stereo not shown) [1-1315, 5-chloro-2-[(2-chloro-6-fluorophenyl)methoxy]-1-methyl-4-isopropyl-7-oxabicyclo[2.2.1]heptane]
≥ 80%: pest or weed control at 1200 g/ha [1] | pest or weed control at 1200 g/ha (Scirpus juncoides [2]) | inhibition at 1200 g/ha [3] | inhibition at 1200 g/ha (Scirpus juncoides [4]) | inhibition at 1200 g/ha (Digitaria ciliaris [5]) | inhibition at 1200 g/ha (Echinochloa crus-galli [6]) | inhibition at 1200 g/ha (Digitaria ciliaris [7]) | inhibition at 1200 g/ha (Echinochloa crus-galli [8]) | inhibition at 75 g/ha [9] | inhibition at 75 g/ha [10] | inhibition at 75 g/ha (Digitaria ciliaris [11]) | inhibition at 75 g/ha (Echinochloa crus-galli [12]) | inhibition at 75 g/ha (Digitaria ciliaris [13]) | inhibition at 75 g/ha (Echinochloa crus-galli [14])
